Molecules are shown by their SMILES.

The target in this assay is T1, steroid 5α-reductase enzyme (Homo sapiens, UniProt P31213).
T1 construct: Frozen human hyperplastic prostate was used for preparation of the enzyme; from tissue; host or cells: human hyperplastic prostate (frozen), sediment of 100000×g ultracentrifugation
T1 sequence (P31213 1-254): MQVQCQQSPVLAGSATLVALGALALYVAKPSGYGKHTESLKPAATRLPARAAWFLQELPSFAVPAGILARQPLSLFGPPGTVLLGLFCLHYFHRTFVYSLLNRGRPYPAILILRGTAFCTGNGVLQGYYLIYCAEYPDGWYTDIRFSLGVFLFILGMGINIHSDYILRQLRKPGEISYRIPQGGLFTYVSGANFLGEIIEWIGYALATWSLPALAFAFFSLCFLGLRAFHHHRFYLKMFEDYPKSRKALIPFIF
In words: 5α-reductase inhibition: conversion of [3H]-testosterone to DHT and androstanediol by enzyme from human hyperplastic prostate. Format: biochemical. Particulars: 0.5 μM [3H]-testosterone, 500 μM NADPH, pH=5.1, 37° C., 10 minutes, read-out: IC50 (concentration decreasing the percentage conversion of testosterone by 50% in comparison to the control value).
As to `CC1CCCC(C)N1C(=O)[C@H]1CC[C@H]2[C@@H]3CC[C@H]4NC(=O)C=C[C@]4(C)[C@H]3CC[C@]12C` (stereo partly drawn) [17β-(2,6-dimethylpiperidinocarbonyl)-3-oxo-4-aza-5α-androst-1-ene], the IC50 came to 8.59 nM.

As for `C[C@]12C=CC(=O)N[C@@H]1CC[C@@H]1[C@@H]2CC[C@]2(C)[C@@H](C(=O)N3CCCCCCC3)CC[C@@H]12` [17β-(heptamethyleneiminocarbonyl)-3-oxo-4-aza-5α-androst-1-ene], the IC50 was determined as 8.64 nM. The same measure for `C[C@]12C=CC(=O)N[C@@H]1CC[C@@H]1[C@@H]2CC[C@]2(C)[C@@H](C(=O)N3CCCCCC3)CC[C@@H]12` [17β-(hexamethyleneiminocarbonyl)-3-oxo-4-aza-5α-androst-1-ene]: 13.1 nM; for `CC(C)(C)NC(=O)[C@H]1CC[C@H]2[C@@H]3CC[C@H]4NC(=O)C=C[C@]4(C)[C@H]3CC[C@]12C` [MK-906, 17β-[N-(1,1-Dimethylethyl)carbamoyl]-3-oxo-4-aza-5α-androst-1-ene, reference compound]: 18.4 nM.

These data come from patent US5583138A, “17β-substituted 4-azaandrostane derivatives, pharmaceutical compositions containing them and process for preparing same” (Richter Gedeon Vegyeszeti Gyar Rt., priority 1992, dated 1996).
